The values that follow come from US20090143279A1 (priority 2007, published 2009).

The experiment concerns cytochrome c. It is filed as cell-based, mouse.
[1] abbreviates: normalized score (composite Z-score vs DMSO mock-treated wells), compound concentration (μM).
The mark [2] stands for this setting: composite Z-score vs mock-treated (DMSO) wells, concentration of each compound in μM.

SMILES strings stand for the structures. Several values for one entry are separate records, joined by “and”; a condition that tells them apart may be missing. Identical values can stand only once. Like-named read-outs stand apart in the source and are kept apart here. Where a SMILES comes first, the peptide text is derived from it.

As to `CN1CCCCC1CCN1c2ccccc2Sc2ccc([S+](C)[O-])cc21` (centres unmarked) [mesoridazine], the “cyt c (composite Z-score)” value was −0.121. With `C[n+]1cccc(C(=O)[O-])c1` [trigonelline], the “cyt c (composite Z-score)” value is −0.072. `Clc1ccc(C(Cn2ccnc2)OCc2c(Cl)cccc2Cl)c(Cl)c1` (centres unmarked) [isoconazole] gave a cyt c under setting [1] of −0.572. As for `CN1CCC(OC(c2ccccc2)c2ccccc2)CC1` [diphenylpyraline], the cyt c is 0.321 and 0.558. The molecule `O=C(O)c1cn(-c2ccc(F)cc2)c2cc(N3CCNCC3)c(F)cc2c1=O` [sarafloxacin] gave a cyt c under setting [2] of 0.290. For `O=C(Cc1cccs1)N[C@@H]1C(=O)N2C(C(=O)[O-])=C(C[n+]3ccccc3)CS[C@H]12` [cephaloridine], under setting [2], the cyt c is −0.278. Take `CCc1ccc(CCOc2ccc(CC3SC(=O)NC3=O)cc2)nc1` (centres unmarked) [pioglitazone]: under setting [2], the cyt c is listed as −0.742. `[H]/N=C(/N)N/C(=N/[H])NCCc1ccccc1` [phenformin] registered a cyt c of 0.241. For the molecule `CCCCc1cc2ccccc2c(OCCN(C)C)n1` [dimethisoquin], the cyt c under setting [2] was −1.006.

With `CN(C)C(=N)N=C(N)N` [metformin], the “cyt c (composite Z-score vs DMSO)” value amounted to 0.597. As for `CC(NCCc1ccc(O)cc1)C(O)c1ccc(O)cc1` (centres unmarked) [ritodrine], the cyt c under setting [2] is listed as −0.072.

Regarding `Cc1cccc(C)c1OCC(C)N` (centres unmarked) [mexiletine], the cyt c turned out to be 1.114. In turn, `CC(C)NCC(O)COc1ccc(CCOCC2CC2)cc1` (centres unmarked) [betaxolol] gave a cyt c of 0.064. Consider `CC(C)c1cccc(C(C)C)c1O` [propofol], for which the “cyt c (composite Z-score vs DMSO)” value was determined as 0.242. On to `NC[C@@H]1CC[C@@H](N)[C@@H](O[C@H]2[C@H](O)[C@@H](O[C@H]3O[C@H](CO)[C@@H](O)[C@H](N)[C@H]3O)[C@H](N)C[C@@H]2N)O1` [dibekacin], for which the cyt c amounted to 0.464.

On to `CC(C)NCC(O)COc1ccc(COCCOC(C)C)cc1` (centres unmarked) [bisoprolol], for which, under setting [1], the cyt c stood at 0.874.

Under setting [2], `COc1c(O[C@@H]2O[C@H](CO)[C@@H](O)[C@H](O)[C@H]2O)cc2c(c1OC)-c1ccc(SC)c(=O)cc1[C@@H](NC(C)=O)CC2` [thiocolchicoside] registered a cyt c of 0.108. Consider `CN(C)CCC=C1c2ccccc2COc2ccccc21` [doxepin], for which the cyt c was determined as 1.151 and the “cyt c (composite Z-score vs DMSO)” value is listed as −0.095. Turning to `CC(C)CC(N(C)C)C1(c2ccc(Cl)cc2)CCC1` (centres unmarked) [sibutramine], under setting [2], the cyt c turned out to be 0.351.

Molecule `O=P1(N(CCCl)CCCl)NCCCO1` (centres unmarked) [cyclophosphamide] registered a cyt c of −0.088.

In the case of `NC1(C(=O)O)CCC1` [1-aminocyclobutane carboxylic acid], the cyt c is reported as −0.335. Molecule `COc1cc2c3cc1Oc1cc(ccc1O)C[C@@H]1c4c(cc(OC)c(O)c4Oc4ccc(cc4)C[C@@H]3N(C)CC2)CC[N+]1(C)C` [tubocurarine] came in with a cyt c under setting [2] of 1.117. Regarding `CNC(=O)CSP(=S)(OC)OC` [dimethoate], the cyt c is on record as 0.837.

Turning to `C[C@]12C=CC(=O)C=C1CC[C@H]1[C@@H]3C[C@@H](O)[C@](O)(C(=O)CO)[C@@]3(C)C[C@H](O)[C@@]12F` [triamcinolone], the cyt c is recorded as −1.483 and the “cyt c (composite Z-score vs DMSO)” value was determined as 0.087. The molecule `C[N+](C)(C)CCOP(=O)(O)OP(=O)([O-])OC[C@H]1O[C@@H](n2ccc(N)nc2=O)[C@H](O)[C@@H]1O` [citicoline] had a cyt c under setting [2] of 0.322.

In turn, `Cc1ccc(S(=O)(=O)NC(=O)NN2CC3CCCC3C2)cc1` (centres unmarked) [gliclazide] had a cyt c under setting [2] of 0.147.

The molecule `COc1c(Cl)ccc(Cl)c1C(=O)O` [dicamba] showed a cyt c of 0.278. `NCCCCCC(=O)O` [aminocaproic acid]: the “cyt c (composite Z-score vs DMSO mock-treated wells)” value worked out at 0.280.

`CC[C@H]1OC(=O)C[C@@H](O)[C@H](C)[C@@H](O[C@@H]2O[C@H](C)[C@@H](O[C@H]3C[C@@](C)(O)[C@@H](O)[C@H](C)O3)[C@H](N(C)C)[C@H]2O)[C@@H](CC=O)C[C@@H](C)C(=O)/C=C/C(C)=C/[C@@H]1CO[C@@H]1O[C@H](C)[C@@H](O)[C@@H](OC)[C@H]1OC` [tylosin] showed a cyt c under setting [2] of −0.007. Under setting [1], `CCOC(=O)Oc1c(OC)cc(C(=O)O[C@@H]2C[C@@H]3CN4CCc5c([nH]c6cc(OC)ccc56)[C@H]4C[C@@H]3[C@H](C(=O)OC)[C@H]2OC)cc1OC` [syrosingopine] gave a cyt c of 1.051. As to `CO/N=C1\CN(c2nc3c(cc2F)c(=O)c(C(=O)O)cn3C2CC2)CC1CN` (centres unmarked) [gemifloxacin], the cyt c under setting [2] worked out at 0.009. Same read-out and setting: then `N[C@@H](Cc1ccccc1)C(=O)N[C@@H](Cc1ccc(O)cc1)C(=O)O` [phenylalanyltyrosine] (H-Phe-Tyr-OH), with −0.342.

`CC1CS(=O)(=O)CCN1/N=C/c1ccc([N+](=O)[O-])o1` (centres unmarked) [nifurtimox] yielded a cyt c of 0.004.

For `CC(C(=O)O)c1ccc(C(=O)c2ccccc2)s1` (centres unmarked) [tiaprofenic acid], under setting [1], the cyt c was 0.644. Take `Cc1c(C(N)=O)cc([N+](=O)[O-])cc1[N+](=O)[O-]` [dinitolmide]: the “cyt c (composite Z-score vs DMSO)” value was determined as 0.218.

In turn, `c1ccc(-c2ccc(C(c3ccccc3)n3ccnc3)cc2)cc1` (centres unmarked) [bifonazole] showed a cyt c of 0.179.

In the case of `CC(=O)N1CCN(c2ccc(OCC3COC(Cn4ccnc4)(c4ccc(Cl)cc4Cl)O3)cc2)CC1` (centres unmarked) [ketoconazole], the cyt c is 0.406 and the “cyt c (composite Z-score vs DMSO mock-treated wells)” value was 0.109. As to `NCCCC[C@H](N[C@@H](CCc1ccccc1)C(=O)O)C(=O)N1CCC[C@H]1C(=O)O` [lisinopril], the “cyt c (composite Z-score vs DMSO)” value is 0.265 and 0.412. Same read-out and setting: the value for `COc1cc2nc(N3CCN(C(=O)C4CCCO4)CC3)nc(N)c2cc1OC` (centres unmarked) [terazosin] was −0.258.

In turn, `CC(C)=CCC[C@]1(C)C=Cc2c(O)c3c(c(CC=C(C)C)c2O1)O[C@]12C(=C[C@@H]4C[C@H]1C(C)(C)O[C@@]2(C/C=C(/C)C(=O)O)C4=O)C3=O` [gambogic acid] showed a cyt c under setting [2] of −5.596. In the case of `CCOC(=O)[C@H](CCc1ccccc1)N[C@@H](C)C(=O)N1[C@H](C(=O)O)C[C@H]2CCCC[C@@H]21` [trandolapril], the cyt c is recorded as 0.039.

`Cn1c(=O)c2[nH]cnc2n(C)c1=O` [aminophylline]: the “cyt c (composite Z-score vs DMSO)” value was 0.177.

`CC(=C(CCO)SSCC1CCCO1)N(C=O)Cc1cnc(C)nc1N` (stereo in doubt) [fursultiamine] had a cyt c of 0.477.

In turn, `CC(C)CCC[C@@H](C)[C@H]1CC[C@H]2[C@@H]3CC=C4CC(=O)CC[C@]4(C)[C@H]3CC[C@]12C` [cholest-5-en-3-one] returned a cyt c of 0.600. Still for that read-out and setting: the value for `Cc1cc(O)cc(=O)o1` [4-hydroxy-6-methylpyran-2-one] was −0.316; that for `COc1ccc2c3c1O[C@H]1C[C@@H](O)C=C[C@@]31CCN(C)C2` [galanthamine] was −1.112. With `CCCC(C)C1(CC)C(=O)NC(=S)NC1=O` (centres unmarked) [thiopental], the “cyt c (composite Z-score vs DMSO)” value is reported as −0.299. For the molecule `C=N[C@@H](C(=O)N[C@@H]1C(=O)N2[C@@H]1SC(C)(C)[C@@H]2C(=O)O)c1ccccc1` [metampicillin], under setting [2], the cyt c is given as 0.821. `CNCCCC1c2ccccc2C=Cc2ccccc21` [protriptyline]: the “cyt c (composite Z-score)” value is given as −1.335. In turn, `CC[C@H](C)C(=O)O[C@H]1C[C@H](O)C=C2C=C[C@H](C)[C@H](CC[C@@H](O)C[C@@H](O)CC(=O)O)[C@H]21` [pravastatin, reference compound] came in with a cyt c under setting [2] of 0.972. On the same count and under the same terms, the value for `CC(=O)SCC(Cc1ccccc1)C(=O)NCC(=O)OCc1ccccc1` (centres unmarked) [racecadotril] was −0.249.

`OCCOCCN1CCN(C(c2ccccc2)c2ccc(Cl)cc2)CC1` (centres unmarked) [hydroxyzine] registered a cyt c under setting [1] of 0.258.

For the molecule `CC1(C)[C@@H](OC(=O)CCC(=O)O)CC[C@]2(C)[C@H]3C(=O)C=C4[C@@H]5C[C@@](C)(C(=O)O)CC[C@]5(C)CC[C@@]4(C)[C@]3(C)CC[C@@H]12` [carbenoxolone], the cyt c is given as 0.145. In the case of `Oc1ccc(O)cc1` [hydroquinone], the “cyt c (composite Z-score vs DMSO)” value is recorded as −4.999.

Take `CC(C)N1CCN(c2ccc(OCC3COC(Cn4cncn4)(c4ccc(Cl)cc4Cl)O3)cc2)CC1` (centres unmarked) [terconazole]: under setting [2], the cyt c turned out to be 0.552. With `CC(C)(C)c1ccc(C(O)CCCN2CCC(C(O)(c3ccccc3)c3ccccc3)CC2)cc1` (centres unmarked) [terfenadine], the “cyt c (composite Z-score vs DMSO)” value is −0.611. For the molecule `CC[C@H]1OC(=O)[C@H](C)[C@@H](O[C@H]2C[C@@](C)(OC)[C@@H](O)[C@H](C)O2)[C@H](C)[C@@H](O[C@@H]2O[C@H](C)C[C@H](N(C)C)[C@H]2O)[C@](C)(O)C[C@@H](C)[C@@H]2N[C@@H](COCCOC)O[C@H]([C@H]2C)[C@]1(C)O` [dirithromycin], the cyt c under setting [2] was 0.356. In the case of `CN(C/C=C/c1ccccc1)Cc1cccc2ccccc12` [naftifine], the cyt c was 0.645. For `CN1[C@@H]2CC[C@H]1C[C@@H](OC(c1ccccc1)c1ccccc1)C2` [benztropine], the “cyt c (composite Z-score vs DMSO mock-treated wells)” value is listed as −1.170. For `CC[C@H]1CN2CC[C@H]1C[C@H]2[C@H](O)c1ccnc2ccc(OC)cc12` [hydroquinine], the cyt c under setting [2] turned out to be 0.004. In turn, `NC(=O)c1ncn([C@@H]2O[C@H](CO)[C@@H](O)[C@H]2O)n1` [ribavirin] yielded a cyt c of −0.336.

With `O=C([O-])c1ccccc1O.[Na+]` [sodium salicylate], the cyt c is 0.607.

Turning to `CCc1cccc(CC)c1NC(=O)CN(CC(=O)O)CC(=O)O` [etifenin], the cyt c under setting [2] is reported as 0.092. The same measure, in the same setting: the value for `COC(=O)C1=CO[C@@H](C)[C@@H]2CN3CCc4c([nH]c5ccccc45)[C@@H]3C[C@H]12` [tetrahydroalstonine] was 1.439; that for `CC(C)=CCC/C(C)=C/COC(=O)C=Cc1ccccc1` [geranyl cinnamate] was −0.107. On the same count and under the same terms, the value for `CC(CCc1ccc(O)cc1)NCCc1ccc(O)c(O)c1` (centres unmarked) [dobutamine] was −0.289.

The molecule `COc1ccc(C(C)=O)c(O)c1` [paeonol] returned a cyt c of 0.306. On the same count and under the same terms, then `C[C@]12CC[C@H]3[C@@H](CCC4=CC(=O)CC[C@@]43C)[C@@H]1CC[C@@H]2O` [testosterone], with −0.787.
